Data taken from ChEMBL document CHEMBL2203248, “Identification of novel series of pyrazole and indole-urea based DFG-out PYK2 inhibitors” (Bioorg Med Chem Lett, 2012).

Tests used:
[1] = Clearance in human liver microsomes at 1 uM after 40 mins by HPLC-MS analysis; assay type: ADME, Microsome; conditions: read-out: CLH
[2] = Lipophilicity, log D of the compound at pH 7.4; assay type: physicochemical; conditions: buffer
Rattus norvegicus [3] = assay: fCmax in Wistar Han rat at 30 mg/kg, po; assay type: ADME, organism-based; set-up: dose 30 mg/kg, route oral; conditions: in vivo
[4] = Volume of distribution at steady state in Wistar Han rat at 1 mg/kg, iv; assay type: ADME, organism-based; set-up: dose 1 mg/kg, route intravenous; conditions: in vivo, read-out: Vdss
[5] = Terminal elimination half life in Wistar Han rat at 1 mg/kg, iv; assay type: ADME, organism-based; set-up: dose 1 mg/kg, route intravenous; conditions: in vivo, read-out: beta t1/2 (converted)
[6] = Oral bioavailability in Wistar Han rat at 30 mg/kg; assay type: ADME, organism-based; conditions: in vivo
[7] = Plasma clearance in Wistar Han rat at 1 mg/kg, iv; assay type: ADME, organism-based; set-up: dose 1 mg/kg, route intravenous
[8] = Cmax in Wistar Han rat at 30 mg/kg, po; assay type: ADME, organism-based; set-up: dose 30 mg/kg, route oral; conditions: in vivo
Rattus norvegicus [9] = assay: fCmax in Wistar Han rat at 100 mg/kg, po; assay type: ADME, organism-based; set-up: dose 100 mg/kg, route oral; conditions: in vivo
[10] = Terminal elimination half life in Wistar Han rat at 100 mg/kg, po; assay type: ADME, organism-based; set-up: dose 100 mg/kg, route oral; conditions: in vivo, read-out: beta t1/2 (converted)
[11] = Cmax in Wistar Han rat at 100 mg/kg, po; assay type: ADME, organism-based; set-up: dose 100 mg/kg, route oral; conditions: in vivo

SMILES	CLint scaled at 1 µM [1] [mL/min/kg]	logD [2]	other results
Cc1ccc(-n2nc(C(C)(C)C)cc2NC(=O)Nc2cc(-c3ccc4nccn4c3)[nH]n2)cc1	44	4.5	–
Cc1ccc(-n2nc(C(C)(C)C)cc2NC(=O)Nc2cccc3cc(C(=O)NC(C)C)[nH]c23)cc1	93	5.3	–
COc1ccc(-c2cc(NC(=O)Nc3cc(C(C)(C)C)nn3-c3ccc(C)cc3)n[nH]2)cn1	48	4.9	–
Cc1ccc(-n2nc(C(C)(C)C)cc2NC(=O)Nc2cc(COc3cccnc3)n[nH]2)cc1	109	–	–
Cc1ccc(-n2nc(C(C)(C)C)cc2NC(=O)Nc2cccc3cc(C(=O)N4CCCC4)[nH]c23)cc1	77	–	–
CNC(=O)c1cc2cccc(NC(=O)Nc3cc(C(C)(C)C)nn3-c3ccc(C)cc3)c2[nH]1	28	4.9	–
Cc1ccc(-n2nc(C(C)(C)C)cc2NC(=O)Nc2cc(-c3ccc(=O)n(C)c3)n[nH]2)cc1	20	3.8	–

Now from value to compound, other results behind:

CLint scaled at 1 µM [1] [mL/min/kg]	logD [2]	SMILES	other results
53	–	Cc1ccc(-n2nc(C(C)(C)C)cc2NC(=O)Nc2cccc3cc(C(=O)N(C)CCc4ccccn4)[nH]c23)cc1	fCmax (Rattus norvegicus [3]): 25 nM; Vd [4]: 0.4 L/kg; half-life [5]: 2.2 h; bioavailability [6]: 69%; clearance [7]: 3.2 mL/min/kg; Cmax [8]: 38.3 µM
92	–	Cc1ccc(-n2nc(C(C)(C)C)cc2NC(=O)Nc2cc(-c3ccc4c(c3)OCCO4)[nH]n2)cc1	–
149	4.7	Cc1ccc(-n2nc(C(C)(C)C)cc2NC(=O)Nc2cc(-c3ccc4nccnc4c3)[nH]n2)cc1	fCmax (Rattus norvegicus [9]): 1.1 nM; half-life [10]: 7.3 h; Cmax [11]: 0.068 µM
11.9	3.7	Cc1ccc(-n2nc(C(C)(C)C)cc2NC(=O)Nc2cc(-c3ccc(=O)[nH]c3)n[nH]2)cc1	–
31	–	CCOCCCNC(=O)c1cc2cccc(NC(=O)Nc3cc(C(C)(C)C)nn3-c3ccc(C)cc3)c2[nH]1	fCmax (Rattus norvegicus [3]): 42 nM; Vd [4]: 0.7 L/kg; half-life [5]: 4.1 h; bioavailability [6]: 1.6%; clearance [7]: 4.8 mL/min/kg; Cmax [8]: 0.621 µM
53	–	Cc1ccc(-n2nc(C(C)(C)C)cc2NC(=O)Nc2cccc3cc(C(=O)N4CCC5(CCNC5)C4)[nH]c23)cc1 (stereo not given)	–
16	–	Cc1ccc(-n2nc(C(C)(C)C)cc2NC(=O)Nc2cc(-c3ccc(O)nn3)[nH]n2)cc1	–
129	–	COc1ccc(-c2cc(NC(=O)Nc3cc(C(C)(C)C)nn3-c3ccc(C)cc3)n[nH]2)c(C)c1	–
55	5.2	Cc1ccc(-n2nc(C(C)(C)C)cc2NC(=O)Nc2cc(-c3ccc4ncccc4c3)n[nH]2)cc1	fCmax (Rattus norvegicus [3]): 184 nM; Vd [4]: 0.15 L/kg; half-life [5]: 2 h; bioavailability [6]: 47%; clearance [7]: 2 mL/min/kg; Cmax [8]: 61.3 µM
